Measurements reported in publication PMC8315801, “The fluoride permeation pathway and anion recognition in Fluc family fluoride channels” (eLife, 2021).

Experiments:
Test in all cases: biochemical
[1] = target: Fluc-Bpe (Bordetella pertussis, UniProt Q7VYU0, R29K)
Source text: planar lipid bilayer, block of fluoride current, two-site fit on Fluc-Bpe

[2] = target: Fluc-Bpe (Bordetella pertussis, UniProt Q7VYU0, E88Q/R29K/S83C)
Source text: (§1) planar lipid bilayer, block of fluoride current, oriented channels, single-site fit on Fluc-Bpe

[3] = target: Fluc-Bpe (Bordetella pertussis, UniProt Q7VYU0, R29K/S83C)
Fluc-Bpe (Bordetella pertussis, UniProt Q7VYU0, R29K/S83C), sequence (Q7VYU0 whole entry R29K/S83C): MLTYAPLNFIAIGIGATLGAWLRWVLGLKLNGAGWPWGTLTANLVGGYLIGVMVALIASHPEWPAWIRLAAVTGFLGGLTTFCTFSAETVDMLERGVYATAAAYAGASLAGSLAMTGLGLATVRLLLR
Source text: as §1

Fluc-Bpe (Bordetella pertussis, UniProt Q7VYU0, R29K), sequence (Q7VYU0 whole entry R29K): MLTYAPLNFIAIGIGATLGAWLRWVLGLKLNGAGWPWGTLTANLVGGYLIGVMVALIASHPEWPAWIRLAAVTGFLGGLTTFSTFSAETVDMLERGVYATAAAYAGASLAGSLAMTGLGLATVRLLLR
Fluc-Bpe (Bordetella pertussis, UniProt Q7VYU0, E88Q/R29K/S83C), sequence (Q7VYU0 whole entry E88Q/R29K/S83C): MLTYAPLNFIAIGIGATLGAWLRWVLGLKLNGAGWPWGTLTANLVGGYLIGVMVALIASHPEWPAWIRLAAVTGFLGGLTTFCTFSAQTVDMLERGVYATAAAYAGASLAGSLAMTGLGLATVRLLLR

Compound: O=[N+]([O-])O [NO3^-]
- Ki [1]: 45 mM

Compound: N#CO [OCN^-]
- Ki [1]: 6.8 mM
- Ki [2]: 48.9 mM
- Ki [3]: 7.9 mM

Compound: N#CS [SCN^-]
- Ki [1]: 9 mM
